This passage reports TGI and GI50 results from PubChem BioAssay (NCI).

Where “and” joins values, the source holds several entries; their conditions need not be identical. Identical values can stand only once.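 Growth conditions: 96-well plates. Treatment: test compound, 48 hours, 5 concentrations. Analysis: linear interpolation between bracketing concentrations; unreached endpoints set to highest concentration. Abbreviation: GI50, concentration required for 50% inhibition of growth. Definition used: TGI = concentration required for complete inhibition of growth.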

Some test systems named below: RPMI-8226 leukemia; KM12 colon; A549 NSCLC; NCI-H23 lung; MDA-MB-231 breast; SW-620 colon; MDA-MB-435; OVCAR-8 ovarian; U251 CNS; MALME-3M melanoma.
Experiment in all cases: NCI-60 cell line screen, 48 h

With `CCOC(=O)c1cn(C)c(=S)n2c1nc1ccccc12`, the TGI in the assay with RPMI-8226 leukemia was 95.6 µM; in the assay on KM12 colon it was over 100 µM; in the assay with A549 NSCLC, over 100 µM; in the assay with NCI-H23 lung, over 100 µM; in the assay on MDA-MB-231 breast, over 100 µM; with SW-620 colon, over 100 µM. Also, the TGI with MDA-MB-435, in the assay with OVCAR-8 ovarian and with U251 CNS was over 100 µM each time.

Take `O=C1C=CC(=O)c2c(O)c(N3CCN(CCOCCO)CC3)c(Cl)c(O)c21`: the results for the GI50 in the assay with RPMI-8226 leukemia, with A549 NSCLC and in the assay with MDA-MB-435 were 277 nM [middle of 4 runs], 2390 nM and 197 nM, respectively. In addition, the TGI with RPMI-8226 leukemia was 1.01 µM [middle of 4 runs]; in the assay on A549 NSCLC, 7.87 µM [middle of 4 runs]; in the assay on MDA-MB-435, 0.907 µM and 0.486 µM.

For `CS(=O)(=O)NC12CCC(c3ccccc31)c1ccccc12`, the TGI with RPMI-8226 leukemia, in the assay with KM12 colon, in the assay on MALME-3M melanoma, in the assay with A549 NSCLC, in the assay with NCI-H23 lung and in the assay on MDA-MB-231 breast was over 100 µM in each case. For the same compound, the TGI in the assay on SW-620 colon, with MDA-MB-435 and in the assay on U251 CNS was over 100 µM throughout.

Consider `COC(=O)C1=C(O)C(C(=O)OC)[C@]2(O)[C@H](C(=O)OC)[C@H]1C[C@@H](c1ccc([N+](=O)[O-])cc1)[C@H]2C(=O)OC` (stereo partly drawn), for which the TGI with KM12 colon was over 100 µM; in the assay on MALME-3M melanoma, 17.5 µM; in the assay on A549 NSCLC, 68.1 µM; with NCI-H23 lung, 31.4 µM; with MDA-MB-231 breast, 83.9 µM; in the assay on SW-620 colon it was 58.4 µM. The TGI in the assay with MDA-MB-435 was over 100 µM; in the assay on OVCAR-8 ovarian it was 41.4 µM; in the assay with U251 CNS it was 28.6 µM.

For `COc1ccc2nc3n(c2c1)CCc1cc(OC)c(OC)cc1-3`, the TGI with KM12 colon, in the assay with MALME-3M melanoma, with A549 NSCLC, with NCI-H23 lung, in the assay with MDA-MB-231 breast and in the assay with SW-620 colon was over 100 µM each time. In addition, the TGI with MDA-MB-435, with OVCAR-8 ovarian and in the assay with U251 CNS was over 100 µM throughout.

For `O=C(c1ccco1)N(C(=S)OC12CC3CC(CC(C3)C1)C2)c1ccccc1`, the TGI in the assay on KM12 colon was over 100 µM; in the assay on MALME-3M melanoma, 65.7 µM; in the assay with A549 NSCLC, over 100 µM; in the assay with NCI-H23 lung, 87.3 µM; in the assay on MDA-MB-231 breast it was over 100 µM; in the assay on SW-620 colon, over 100 µM. Moreover, the TGI with MDA-MB-435 was 90.3 µM; in the assay with OVCAR-8 ovarian, over 100 µM; with U251 CNS it was 59.5 µM.

In the case of `C=C(C)[C@@H]1CC[C@]2(C(=O)O)CC[C@]3(C)[C@H](CCC4[C@@]5(C)CC[C@H](C(=O)/C=C/c6ccc(O)c(O)c6)C(C)(C)[C@@H]5CC[C@]43C)[C@@H]12` (stereo partly drawn), the TGI in the assay on KM12 colon is 28.2 µM; in the assay on A549 NSCLC, over 100 µM; in the assay with NCI-H23 lung, 9.62 µM; in the assay with MDA-MB-231 breast it was 35.7 µM; in the assay on MDA-MB-435 it was 16.7 µM; in the assay on OVCAR-8 ovarian, 54.5 µM.

Consider `Cc1csc(NC(=NCCN2CCOCC2)Nc2nc(C)cs2)n1`, for which the TGI in the assay with RPMI-8226 leukemia, with KM12 colon, in the assay on MALME-3M melanoma, in the assay with A549 NSCLC, in the assay with NCI-H23 lung and with SW-620 colon was over 100 µM each time. Also, the TGI in the assay with OVCAR-8 ovarian and in the assay with U251 CNS was over 100 µM each time.

As for `CC1(C2CCC3(C)OC3C2)CO1` (stereo not drawn), the TGI in the assay with RPMI-8226 leukemia, in the assay on KM12 colon, with MALME-3M melanoma, in the assay on A549 NSCLC, in the assay with NCI-H23 lung and with SW-620 colon was over 100 µM in each case. For the same compound, the TGI in the assay on OVCAR-8 ovarian and with U251 CNS was over 100 µM throughout.

Take `CC(C)(C)C1CC[C@H](O)[C@H]([C@H](O)CC2CC(=O)N(c3ccccc3)C(=O)C2)C1` (stereo partly drawn): the TGI in the assay on KM12 colon, in the assay on MALME-3M melanoma, in the assay on A549 NSCLC, with NCI-H23 lung, in the assay with MDA-MB-231 breast and with SW-620 colon was over 100 µM each time. Also, the TGI in the assay with MDA-MB-435, in the assay on OVCAR-8 ovarian and in the assay on U251 CNS was over 100 µM throughout.

`Cc1[nH]c(=O)[nH]c(=S)c1C(=O)Nc1cccc2cc3ccccc3cc12`: the TGI in the assay on RPMI-8226 leukemia, in the assay on KM12 colon, in the assay with MALME-3M melanoma, in the assay on NCI-H23 lung, with SW-620 colon and in the assay on MDA-MB-435 was over 100 µM throughout. The TGI with OVCAR-8 ovarian and in the assay with U251 CNS was over 100 µM in each case.

On to `CCOP(=O)(OCC)/C(C#N)=C/c1cccn1Cc1ccccc1`, for which the TGI in the assay with KM12 colon is 78.3 µM; in the assay with MALME-3M melanoma, over 100 µM; in the assay with A549 NSCLC it was over 100 µM; with NCI-H23 lung it was over 100 µM; with MDA-MB-231 breast, 57.5 µM; in the assay with SW-620 colon, 75.2 µM. For the same compound, the TGI with MDA-MB-435 is 42 µM; in the assay with OVCAR-8 ovarian, over 100 µM; in the assay on U251 CNS it was 57.9 µM.

On to `CN(C)c1ccc(/C=C2\N=C(c3ccccc3)N(c3ccc4c(c3)Sc3cc(N5C(=O)/C(=C/c6ccc(N(C)C)cc6)N=C5c5ccccc5)ccc3N4)C2=O)cc1`, for which the TGI in the assay with RPMI-8226 leukemia is 51.4 µM; with KM12 colon, over 100 µM; in the assay on A549 NSCLC it was 52.2 µM; in the assay with MDA-MB-231 breast, 41.5 µM; with SW-620 colon it was over 100 µM; in the assay on MDA-MB-435, 58 µM. For the same compound, the values for the TGI in the assay on OVCAR-8 ovarian and with U251 CNS were 34.4 µM and 29 µM, respectively.

As for `CC(=O)O[C@H]1CC[C@@]2(C)[C@H](CC[C@@H]3[C@@H]2CC[C@]2(C)[C@@H](c4ccc(=O)oc4)C[C@H]4O[C@]342)C1`, the TGI in the assay with RPMI-8226 leukemia was 5.1 µM; in the assay on KM12 colon, 36.8 µM; in the assay with MALME-3M melanoma, 2.61 µM; in the assay on A549 NSCLC, 0.759 µM; in the assay with NCI-H23 lung, 1.83 µM; in the assay with SW-620 colon, 3.1 µM. The figures for the TGI with OVCAR-8 ovarian and in the assay on U251 CNS were 4.1 µM and 4.6 µM, respectively.

`CSc1ccc(/C=C2\N=C(c3ccccc3)N(/N=C/c3cc4cc(C)ccc4nc3Cl)C2=O)cc1`: the TGI is over 100 µM with RPMI-8226 leukemia; 33.8 µM in the assay with KM12 colon; 59 µM with A549 NSCLC; 47.6 µM with MDA-MB-231 breast; over 100 µM in the assay on SW-620 colon; 26.1 µM in the assay on MDA-MB-435. In addition, the values for the TGI in the assay with OVCAR-8 ovarian and with U251 CNS were 42.4 µM and 51.2 µM, respectively.
